Experimental data: US20230141403A1 (Hoffmann-La Roche Inc., priority 2020, published 2023)

system: Acinetobacter baumannii ATCC17978; assay: Antimicrobial susceptibility testing: 90% growth inhibitory concentration (IC90) determination; format: cell-based; conditions: ATCC17978, 90% growth inhibitory concentration, Iso-Sensitest broth, optical density at 600 nm over 16h, 35±2° C., read-out: AB ATCC 17978 IC90
Procedure: Antimicrobial Susceptibility Testing:
90% Growth Inhibitory Concentration (IC90) Determination
The in vitro antimicrobial activity of the compounds was determined according to the following procedure:
The assay used a 10-points Iso-Sensitest broth medium to measure quantitatively the in vitro activity of the compounds against Acinetobacter baumannii ATCC17961 or ATCC17978.
Stock compounds in DMSO were serially twofold diluted (e.g. range from 50 to 0.097 μM final concentration) in 384 wells microtiter plates and inoculated with 49 μl the bacterial suspension in Iso-Sensitest medium to have a final cell concentration of ˜5×10^(5) CFU/ml in a final volume/well of 50 ul/well. Microtiter plates were incubated at 35±2° C.
Bacterial cell growth was determined with the measurement of optical density at λ=600 nm each 20 minutes over a time course of 16h. Growth inhibition was calculated during the logarithmic growth of the bacterial cells with determination of the concentration inhibiting 50% (IC50) and 90% (IC90) of the growth.
Table 1 provides the 90% growth inhibitory concentrations (IC90) in micromoles per liter of the compounds of present invention obtained against the strain Acinetobacter baumannii ATCC17978.

Point of comparison: `COc1ccc(-c2cnc3c(Nc4ccc(NC(C)=O)cc4)nccn23)cc1F` [Example 16, N-(4-((3-(3-fluoro-4-methoxyphenyl)imidazo[1,2-a]pyrazin-8-yl)amino)phenyl)acetamide], IC90 400 nM. Against it:
- COc1ccc(-c2cnc3c(Nc4ccc(NC(=O)CO)cc4)nccn23)cc1F [Example 12, N-[4-[[3-(3-fluoro-4-methoxy-phenyl)imidazo [1,2-a]pyrazin-8-yl]amino]phenyl]-2-hydroxy-acetamide; 2,2,2-trifluoroacetic acid] — 2.2-fold higher, 890 nM
- COc1ccc(-c2cnc3c(Nc4ccc(N5CCCC5=O)cc4)nccn23)cc1 [Example 18, 1-[4-[[3-(4-methoxyphenyl)imidazo[1,2-a]pyrazin-8-yl]amino]phenyl]pyrrolidin-2-one] — within 1.5-fold, 330 nM
- CC(=O)Nc1ccc(Nc2nccn3c(-c4ccc(OC(F)F)c(Cl)c4)cnc23)cc1 [Example 41, N-(4-((3-(3-chloro-4-(difluoromethoxy)phenyl)imidazo[1,2-a]pyrazin-8-yl)amino)phenyl)acetamide] — within 1.5-fold, 520 nM
- O=C1CCCN1c1ccc(Nc2nccn3c(-c4ccc(OC(F)F)c(F)c4)cnc23)cc1 [Example 57, 1-(4-((3-(4-(difluoromethoxy)-3-fluorophenyl)imidazo [1,2-a]pyrazin-8-yl)amino)phenyl)pyrrolidin-2-one] — 2.9-fold lower, 140 nM
- COCC(=O)Nc1ccc(Nc2nccn3c(-c4ccc(OC)cc4)cnc23)cc1 [Example 19, 2-Methoxy-N-{4-[3-(4-methoxy-phenyl)-imidazo[1,2-a]pyrazin-8-ylamino]-phenyl}-acetamide] — 1.9-fold higher, 770 nM
- C#CCOc1ccc(-c2cnc3c(Nc4ccc(NC(C)=O)cc4)nccn23)cc1 [Example 65, N-(4-((3-(4-(prop-2-yn-1-yloxy)phenyl)imidazo[1,2-a]pyrazin-8-yl)amino)phenyl)acetamide] — 1.9-fold higher, 750 nM
- COc1ccc(-c2cnc3c(Nc4ccc(NC(=O)CN5CCOCC5)cc4)nccn23)cc1Cl [Example 36, N-(4-((3-(3-chloro-4-methoxyphenyl)imidazo[1,2-a]pyrazin-8-yl)amino)phenyl)-2-morpholinoacetamide] — 2.1-fold higher, 840 nM
- Cc1cc(Nc2nccn3c(-c4ccc(Cl)cc4)cnc23)ccc1N1CCCC1=O [Example 60, 1-(4-((3-(4-chlorophenyl)imidazo[1,2-a]pyrazin-8-yl)amino)-2-methylphenyl)pyrrolidin-2-one] — 1.9-fold higher, 760 nM
- COc1ccc(-c2cnc3c(Nc4ccc(S(C)(=O)=O)c(Cl)c4)nccn23)cc1 [Example 81, N-(3-chloro-4-(methylsulfonyl)phenyl)-3-(4-methoxyphenyl) imidazo [1,2-a]pyrazin-8-amine] — 1.6-fold higher, 630 nM
- CCN(CC)C(=O)CNS(=O)(=O)c1ccc(Nc2nccn3c(-c4ccc(OC)cc4)cnc23)cc1 [Example 80, N,N-diethyl-2-(4-((3-(4-methoxyphenyl)imidazo[1,2-a]pyrazin-8-yl)amino)phenylsulfonamido) acetamide] — 1.9-fold higher, 760 nM
- CCc1cc(Nc2nccn3c(-c4ccc(OC)c(F)c4F)cnc23)ccc1N [Example 92, N1-(3-(2,3-difluoro-4-methoxyphenyl)imidazo[1,2-a]pyrazin-8-yl)-3-ethylbenzene-1,4-diamine] — 1.8-fold higher, 700 nM
- CC(=O)Nc1ccc(Nc2nccn3c(-c4ccc(OC(F)F)cc4)cnc23)cc1 [Example 8, N-[4-[[3-[4-(difluoromethoxy)phenyl]imidazo [1,2-a]pyrazin-8-yl]amino]phenyl] acetamide] — 2-fold higher, 820 nM
- COc1ccc(-c2cnc3c(Nc4ccc(N5CCCC5=O)cc4)nccn23)cc1Cl [Example 9, 1-[4-[[3-(3-chloro-4-methoxy-phenyl)imidazo [1,2-a]pyrazin-8-yl]amino]phenyl] pyrrolidin-2-one; 2,2,2-trifluoroacetic acid] — within 1.5-fold, 340 nM
- CC(=O)Nc1ccc(Nc2nccn3c(-c4ccc(OCC#N)cc4)cnc23)cc1C [Example 88, N-(4-((3-(4-(cyanomethoxy)phenyl)imidazo[1,2-a]pyrazin-8-yl)amino)-2-methylphenyl) acetamide] — within 1.5-fold, 330 nM
- COc1ccc(-c2cnc3c(Nc4ccc(S(=O)(=O)N5CCOCC5)cc4)nccn23)cc1 [Example 78, 3-(4-methoxyphenyl)-N-(4-(morpholinosulfonyl)phenyl)imidazo[1,2-a]pyrazin-8-amine] — within 1.5-fold, 580 nM
- COc1ccc(-c2cnc3c(Nc4ccc(Cn5ccnc5)c(C)c4)nccn23)cc1 [Example 119, N-[4-(imidazol-1-ylmethyl)-3-methyl-phenyl]-3-(4-methoxyphenyl) imidazo[1,2-a]pyrazin-8-amine] — within 1.5-fold, 370 nM
- CC1CCC(=O)N1c1ccc(Nc2nccn3c(-c4ccc(OC(F)F)cc4)cnc23)cc1 (centres unmarked) [Example 95, 1-(4-((3-(4-(difluoromethoxy)phenyl)imidazo[1,2-a]pyrazin-8-yl)amino)phenyl)-5-methylpyrrolidin-2-one] — within 1.5-fold, 380 nM
- COc1ccc(-c2cnc3c(Nc4ccc(NC(C)=O)c(C)c4)nccn23)c(Cl)c1 [Example 86, N-(4-((3-(2-chloro-4-methoxyphenyl)imidazo [1,2-a]pyrazin-8-yl)amino)-2-methylphenyl)acetamide] — 1.5-fold lower, 260 nM
- COc1ccc(-c2cnc3c(Nc4ccc(NC(C)=O)c(Cl)c4)nccn23)cc1Cl [Example 46, N-(2-chloro-4-((3-(3-chloro-4-methoxyphenyl)imidazo[1,2-a]pyrazin-8-yl)amino)phenyl)acetamide] — 2.2-fold higher, 890 nM
- COc1ccc(-c2cnc3c(Nc4ccc(NC(=O)CO)cc4)nccn23)cc1Cl [Example 10, N-[4-[[3-(3-chloro-4-methoxy-phenyl)imidazo [1,2-a]pyrazin-8-yl]amino]phenyl]-2-hydroxy-acetamide; 2,2,2-trifluoroacetic acid] — 2-fold higher, 820 nM
- CCN1CCN(CC(=O)Nc2ccc(Nc3nccn4c(-c5ccc(OC(F)F)cc5)cnc34)cc2C)CC1 [Example 55, N-(4-((3-(4-(difluoromethoxy)phenyl)imidazo[1,2-a]pyrazin-8-yl)amino)-2-methylphenyl)-2-(4-ethylpiperazin-1-yl)acetamide] — within 1.5-fold, 280 nM
- CCCCC(=O)NCCOCC(=O)Nc1ccc(Nc2nccn3c(-c4ccc(OC)cc4)cnc23)cc1C [Example 90, N-(2-(2-((4-((3-(4-methoxyphenyl)imidazo[1,2-a]pyrazin-8-yl)amino)-2-methylphenyl)amino)-2-oxoethoxy)ethyl)pentanamide] — 1.7-fold lower, 240 nM
- CNS(=O)(=O)c1ccc(Nc2nccn3c(-c4ccc(OC)c(Cl)c4)cnc23)cc1 [Example 91, 4-((3-(3-chloro-4-methoxyphenyl)imidazo[1,2-a]pyrazin-8-yl)amino)-N-methylbenzenesulfonamide] — 2-fold higher, 810 nM
- COc1ccc(-c2cnc3c(Nc4ccc(NC(=O)CCl)cc4)nccn23)cc1 [Example 51, 2-chloro-N-(4-((3-(4-methoxyphenyl)imidazo[1,2-a]pyrazin-8-yl)amino)phenyl)acetamide] — 1.9-fold higher, 750 nM
- CC(=O)Nc1ccc(Nc2nccn3c(-c4ccc(F)cc4F)cnc23)cc1C [Example 83, N-(4-((3-(2,4-difluorophenyl)imidazo[1,2-a]pyrazin-8-yl)amino)-2-methylphenyl)acetamide] — 1.8-fold higher, 700 nM
- CC(=O)Nc1ccc(Nc2nccn3c(-c4ccc(F)c(F)c4)cnc23)cc1C [Example 85, N-(4-((3-(3,4-difluorophenyl)imidazo[1,2-a]pyrazin-8-yl)amino)-2-methylphenyl) acetamide] — within 1.5-fold, 340 nM
- COc1ccc(-c2cnc3c(Nc4ccc(NC(=O)CN5CCNCC5)c(C)c4)nccn23)cc1Cl [Example 49, N-(4-((3-(3-chloro-4-methoxyphenyl)imidazo[1,2-a]pyrazin-8-yl)amino)-2-methylphenyl)-2-(piperazin-1-yl)acetamide] — within 1.5-fold, 300 nM
- CC(=O)Nc1ccc(Nc2nccn3c(-c4ccc(F)c(F)c4F)cnc23)cc1C [Example 87, N-(2-methyl-4-((3-(2,3,4-trifluorophenyl)imidazo[1,2-a]pyrazin-8-yl)amino)phenyl) acetamide] — 1.5-fold lower, 260 nM
- CC(=O)Nc1ccc(Nc2nccn3c(-c4ccc(F)c(F)c4F)cnc23)cc1 [Example 82, N-(4-((3-(2,3,4-trifluorophenyl)imidazo[1,2-a]pyrazin-8-yl)amino)phenyl)acetamide] — 2.2-fold higher, 890 nM
- Cc1cc(Nc2nccn3c(-c4ccc(OC(F)F)cc4)cnc23)ccc1N1CCCC1=O [Example 54, 1-(4-((3-(4-(difluoromethoxy)phenyl)imidazo[1,2-a]pyrazin-8-yl)amino)-2-methylphenyl)pyrrolidin-2-one] — 1.8-fold higher, 720 nM
- COc1ccc(-c2cnc3c(Nc4ccc(NC(C)=O)cc4)nccn23)c(F)c1 [Example 34, N-(4-((3-(2-fluoro-4-methoxyphenyl)imidazo[1,2-a]pyrazin-8-yl)amino)phenyl)acetamide] — within 1.5-fold, 550 nM
- COc1ccc(-c2cnc3c(Nc4ccc(Cn5ccnc5)cc4)nccn23)cc1 [Example 117, N-[4-(imidazol-1-ylmethyl)phenyl]-3-(4-methoxyphenyl)imidazo[1,2-a]pyrazin-8-amine] — within 1.5-fold, 540 nM
- CC(=O)Nc1ccc(Nc2nccn3c(-c4ccc(Cl)c(F)c4)cnc23)cc1C [Example 84, N-(4-((3-(4-chloro-3-fluorophenyl)imidazo[1,2-a]pyrazin-8-yl)amino)-2-methylphenyl)] — 2.4-fold lower, 170 nM
- COc1ccc(-c2cnc3c(Nc4ccc(NC(C)=O)c(C)c4)nccn23)c(F)c1 [Example 89, N-(4-((3-(2-fluoro-4-methoxyphenyl)imidazo [1,2-a]pyrazin-8-yl)amino)-2-methylphenyl) acetamide] — within 1.5-fold, 280 nM
